Results: patent US11141374B2, “Natural skin care compositions and methods for treating oxidative stress and restoring skin health” (CODEX BEAUTY CORPORATION, priority 2019, dated 2021)

Tested on: normal human-derived epidermal keratinocytes
Assay: in-vitro thymidine dimer assay after UVB, epidermis skin model
Format: cell-based
Conditions: 7 days treatment, UVB 300 mJ/cm^2; Trolox 50 ug/ml, Aristotelia chilensis 5%, Ugni molinae 4%
Method: Leaf extracts Aristotelia chilensis and Ugni molinae were evaluated to determine their ability to prevent undesirable thymidine dimer formation upon exposure to UVB radiation. When skin is exposed to UVB radiation, thymidine bases in the DNA can absorb the UVB radiation to form thymidine dimers (also known as thymine dimers) in DNA, complicating the cell's efforts to replicate DNA and to properly function. In this experiment, an in-vitro thymidine dimer assay was performed using a skin model consisting of normal human-derived epidermal keratinocytes cultured to form a multilayered model of the human epidermis. […] The primary antibody was then detected with a secondary antibody conjugated to a fluorescent dye. The membrane was then scanned with an excitation laser and emission filter combo specific to the fluorescent dye, so that the fluorescence intensity of each sample was proportional to the amount of thymidine dimers present in the sample and a lower fluorescence intensity advantageously indicates lower levels of cellular damage from UVB radiation. The results of the thymidine dimer assay are found in Table 1, below, expressed as mean Relative Fluorescence Units (RFU)±standard deviation.

Cc1c(C)c2c(c(C)c1O)CCC(C)(C(=O)O)O2 (stereo not shown) [Trolox]
Corrected RFU (thymidine dimers), mean ± standard deviation: 4.380 ± 393.00 RFU
